Target: Botulinum neurotoxin type A (Clostridium botulinum (strain Hall / ATCC 3502 / NCTC 13319 / Type A)) (UniProt P0DPI1)
Assay: BoNT/A light chain protease inhibitors, confirmation, biochemical, FRET, full-length substrates, powder set 1 (AID 652102)
Settings: BoNT/A LC protease, FRET full-length substrate cleavage

Botulinum neurotoxin type A (Clostridium botulinum (strain Hall / ATCC 3502 / NCTC 13319 / Type A)), sequence (P0DPI1 whole entry, looked up): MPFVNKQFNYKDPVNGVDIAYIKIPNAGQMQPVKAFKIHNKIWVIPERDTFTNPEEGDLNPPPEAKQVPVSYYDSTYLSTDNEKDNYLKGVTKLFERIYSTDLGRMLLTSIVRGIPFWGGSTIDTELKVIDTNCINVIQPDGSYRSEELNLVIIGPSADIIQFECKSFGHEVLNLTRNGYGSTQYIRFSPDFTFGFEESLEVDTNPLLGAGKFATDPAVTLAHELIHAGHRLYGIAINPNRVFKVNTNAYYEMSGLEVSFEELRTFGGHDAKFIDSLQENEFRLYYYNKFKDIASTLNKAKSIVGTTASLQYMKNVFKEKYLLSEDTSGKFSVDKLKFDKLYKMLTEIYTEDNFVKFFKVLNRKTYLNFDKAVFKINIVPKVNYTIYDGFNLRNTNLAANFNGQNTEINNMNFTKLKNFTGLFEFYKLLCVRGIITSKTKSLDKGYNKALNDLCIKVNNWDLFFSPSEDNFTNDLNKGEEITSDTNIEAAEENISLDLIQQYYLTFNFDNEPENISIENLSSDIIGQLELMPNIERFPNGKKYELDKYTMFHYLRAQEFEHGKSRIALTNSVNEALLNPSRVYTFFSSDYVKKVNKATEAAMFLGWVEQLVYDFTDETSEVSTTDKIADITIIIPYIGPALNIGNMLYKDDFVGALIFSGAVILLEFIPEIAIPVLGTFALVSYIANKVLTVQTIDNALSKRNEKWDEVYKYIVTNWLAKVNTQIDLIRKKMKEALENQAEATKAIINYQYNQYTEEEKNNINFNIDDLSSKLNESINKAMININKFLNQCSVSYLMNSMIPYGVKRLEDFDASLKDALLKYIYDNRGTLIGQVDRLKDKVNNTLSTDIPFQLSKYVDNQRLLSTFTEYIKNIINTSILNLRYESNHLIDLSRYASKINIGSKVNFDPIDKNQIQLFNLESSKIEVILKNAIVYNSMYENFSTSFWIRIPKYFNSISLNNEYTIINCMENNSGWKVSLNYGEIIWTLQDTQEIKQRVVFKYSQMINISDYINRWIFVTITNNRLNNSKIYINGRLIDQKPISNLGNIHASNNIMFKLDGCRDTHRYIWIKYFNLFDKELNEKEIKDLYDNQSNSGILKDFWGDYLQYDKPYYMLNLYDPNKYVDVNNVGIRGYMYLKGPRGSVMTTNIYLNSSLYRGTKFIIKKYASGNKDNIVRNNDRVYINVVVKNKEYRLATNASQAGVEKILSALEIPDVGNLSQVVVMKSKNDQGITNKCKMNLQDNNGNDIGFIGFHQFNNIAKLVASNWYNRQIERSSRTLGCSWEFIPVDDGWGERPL

Compound `c1ccc(-c2cn3nc(-c4ccccc4)c(-c4ccccc4)nc3n2)cc1` has an IC50 of 600 nM.

From PubChem BioAssay AID652102 (NMMLSC, 2013)
